Data set [1] deals with T1, Δ24-steroid desaturase (Δ24-SD) (Sterolibacterium denitrificans, UniProt A0A7Z7MWF7+A0A7Z7MWR3).
T1 construct: gene SDENCHOL_21263; alpha 63 kDa, beta 57 kDa; covalent FMN on a histidine of each subunit
Briefly: LC-MS/MS of tryptic peptides; acid denaturation. To be noted: covalent; histidyl residue near N terminus in both subunits. It is filed as binding.

Substrate in data set [2]: CC[C@H](/C=C/[C@@H](C)[C@H]1CC[C@H]2[C@@H]3CCC4=CC(=O)C=C[C@]4(C)[C@H]3CC[C@]12C)C(C)C
Briefly: UPLC assay of SDO to STO conversion, Michaelis-Menten fit. Format: biochemical, Sterolibacterium denitrificans. Conditions: 1 mM DCPIP as electron acceptor, 50 mM Mops/KOH pH 7.0, 6% (w/v) HPCD, 30 °C, aerobic.

The values that follow come from publication PMC11061730, “Bacterial stigmasterol degradation involving radical flavin delta-24 desaturase and molybdenum-dependent C26 hydroxylase” (The Journal of Biological Chemistry, 2024).

On to `Cc1cc2nc3c(=O)[nH]c(=O)nc-3n(C[C@H](O)[C@H](O)[C@H](O)COP(=O)(O)O)c2cc1C` [flavin mononucleotide], for which the “LC-MS/MS of tryptic peptides; acid denaturation” value in data set [1] is reported as “contained flavin mononucleotide (FMN) modifications in both subunits”.

B1: Δ24-steroid desaturase (Δ24-SD) (Sterolibacterium denitrificans) (protein)
chain 1: MKNYDVIIIGGGINGLTTACYLQKAGLSVGVFEARGQCGAHCDTIELGRPGFLFNTHATWLVPAMSPPMADLELEKFNLELLGTDVIFAMPHADGTNTVQALDPGITMASIARHSEKDAALLGRIMEFGMMHMQEALEINGQMQYSRPTMALAERIAKLNDGLCKHLGLPIDGDDVMRMTGFELLELVYESEKVRLVPGTLGEYTGQWPLNRRVAPTVLGLCGMNPMAVHTAKGGSHALNHALVRCFVKHGGEIWTTCPVSKIIVENGRAVGIKLSEDALMPGEEIRAKNIVSNLTLTPTFTKLLGEEVIGPDWMRRIKYFNYDDPQLLGMYYAMKDAPVFKSAEYDPAIQRCWVGYFGPDSIDDVRNAQSQVMAGIMPTQTMGGWFNPTLADPSQAPAGHHVVSTWITVPPSPRKWGNKTLNGWSSWREGFGEALADTMDDLYEKMAPGFKDLIIERHINTPMDQENSNPSAVRGNMIGGSAIPEQAGENRPLPGVCVNGASRTFIPGLYLSNSIHPFGATHLASGYIAAVELAEDLGCRNQSWWISQPFEWFMGNLGNIPLNAGVADKWKV
chain 2: MSNETKFDAIVIGGGPNGLLAGAYLAKTGHKVVLFERRHETGGGLNTDEYFGFRFNLHAIYHLMAEKMPAWKDLDLANFGVRYLYPHVVAAFPFKDGSSLIFTRDVKETAESIAQFSKEDAAAYLAMWDEFQPMLDDYLIPMTYELPKPALDQLAEFGETEVGAKLAEISELSCLEVIDHYGFTHPRVRMALLSFPAMWGIHLADPLGFLYPLYLGRMLDAAFVKGGSHRLSSGMYRVFVKNGGTVIDENEVTRILVEDNRVTGVELQDGRRFMADAVVSTLNPVQTFKQLLPKDDVPYALHQAVDNWRWEERSFFGLHLGIDGGVRYNAQDPRVNEAMTVFIGLETEDELLDHLDRVDGKTTNGPEWLHIAQPTTFDKTMAPPNHSVIRAEAVVAYDPEWRARTPAFAAGCLDLIKQYATVDKVVQQRTVSPIDIEEKLTTMHRGSYKHGAYSTLQLGYLRPNDLCSCSETPIDGLFLGGASMYPGGMILGGPGYLAAQVTNDYLGEPVKK
notes: alpha 63 kDa, beta 57 kDa; covalent FMN on a histidine of each subunit
On to B1, for which, in data set [2], the Michaelis constant (Km) (commonly the substrate concentration at which the rate is half of its maximum) stood at 51.5 ± 8.2 µM.
